How the values were obtained:
Type in all cases: in vivo
corn (Zea mays) [1] = assay: Test A postemergence application, visual injury rating 0-100
Summary of the method: (§1)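 Rating: visual, day 10, untreated plants as reference, 0 no effect to 100 full control. Plants were in loam-sand and were treated either preemergence via directed soil spray or postemergence at the one- to two-leaf stage.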

[2] = system: galium (catchweed bedstraw, Galium aparine); assay: as above
Summary of the method: as §1

[3] = system: palmer (palmer amaranth, palmer pigweed, Amaranthus palmeri); assay: as above
Summary of the method: as §1

[4] = system: blackgrass (Alopecurus myosuroides); assay: as above
Summary of the method: as §1

[5] = system: oat, wild (wild oat, Avena fatua); assay: as above
Summary of the method: as §1

[6] = system: green foxtail (Setaria viridis); assay: as above
Summary of the method: as §1

[7] = system: ragweed (common ragweed, Ambrosia artemisiifolia); assay: as above
Summary of the method: as §1

kochia (Bassia scoparia) [8] = assay: as above
Summary of the method: as §1

[9] = system: horseweed (Erigeron canadensis); assay: as above
Summary of the method: as §1

soybean (Glycine max) [10] = assay: as above
Summary of the method: as §1

[11] = system: wheat (Triticum aestivum); assay: as above
Summary of the method: as §1

[12] = system: barnyardgrass (Echinochloa crus-galli); assay: as above
Summary of the method: as §1

[13] = system: ryegrass, Italian (italian ryegrass, Lolium multiflorum); assay: as above
Summary of the method: as §1

rice (Oryza sativa) = assay: Test B flooded paddy test, visual plant response rating 0-100; conditions: 250 g ai/ha, Flood, applied to paddy water, evaluated after 13 days
Summary of the method: (§2)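 Paddy-water application: test compounds went directly into water flooded 3 cm above the soil surface, with plants at 2 leaves. After a 13-day greenhouse period, responses were judged by eye relative to controls; a dash marks an untested entry.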

[14] = system: sedge, umbrella (small-flower umbrella sedge, Cyperus difformis); assay: as above; conditions: 250 g ai/ha, Flood, applied to paddy water, evaluated after 13 days
Summary of the method: as §2

[15] = system: ducksalad (Heteranthera limosa); assay: as above; conditions: 250 g ai/ha, Flood, applied to paddy water, evaluated after 13 days
Summary of the method: as §2

[16] = system: barnyardgrass (Echinochloa crusgalli); assay: as above; conditions: 250 g ai/ha, Flood, applied to paddy water, evaluated after 13 days
Summary of the method: as §2

corn (Zea mays) [17] = assay: Test A preemergence soil spray, visual injury rating 0-100; conditions: 10 days
Summary of the method: as §1

[18] = system: palmer (palmer amaranth, palmer pigweed, Amaranthus palmeri); assay: as above; conditions: 10 days
Summary of the method: as §1

[19] = system: blackgrass (Alopecurus myosuroides); assay: as above; conditions: 10 days
Summary of the method: as §1

[20] = system: oat, wild (wild oat, Avena fatua); assay: as above; conditions: 10 days
Summary of the method: as §1

[21] = system: green foxtail (Setaria viridis); assay: as above; conditions: 10 days
Summary of the method: as §1

[22] = system: ragweed (common ragweed, Ambrosia artemisiifolia); assay: as above; conditions: 10 days
Summary of the method: as §1

kochia (Bassia scoparia) [23] = assay: as above; conditions: 10 days
Summary of the method: as §1

soybean (Glycine max) [24] = assay: as above; conditions: 10 days
Summary of the method: as §1

[25] = system: wheat (Triticum aestivum); assay: as above; conditions: 10 days
Summary of the method: as §1

[26] = system: barnyardgrass (Echinochloa crus-galli); assay: as above; conditions: 10 days
Summary of the method: as §1

[27] = system: ryegrass, Italian (italian ryegrass, Lolium multiflorum); assay: as above; conditions: 10 days
Summary of the method: as §1

[28] = 62 g ai/ha, postemergence, 10 days, 0 = no effect, 100 = complete control
[29] = Postemergence, 16 g ai/ha, greenhouse 10 days, 0 no effect, 100 complete control
[30] = 62 g ai/ha, 0 = no effect, 100 = complete control

CCOC(=O)C1CC(NC(=O)C2(C)CN(c3cc(F)cc(F)c3)C(=O)O2)C1 (stereo not shown) [Compound 125] was tested, and the “Corn plant response rating (0-100)” value (corn (Zea mays) [1]; [28]) was 100, the “Corn plant response rating (0 to 100 scale)” value (corn (Zea mays) [1]; [29]) was 90 and the “Galium plant response rating (0-100)” value [2, 28] was 60. The “Galium plant response rating (0 to 100 scale)” value [2, 29] was 30, the “Pigweed, Palmer plant response rating (0-100)” value [3, 28] was 70 and the “Pigweed, Palmer plant response rating (0 to 100 scale)” value [3, 29] was 10. For the same molecule, the “Blackgrass plant response rating (0-100)” value [4, 28] was 90, the “Blackgrass plant response rating (0 to 100 scale)” value [4, 29] was 90 and the “Oat, Wild plant response rating (0-100)” value [5, 28] was 90. The “Oat, Wild plant response rating (0 to 100 scale)” value [5, 29] was 50, the “Foxtail, Green plant response rating (0-100)” value [6, 28] was 90 and the “Foxtail, Green plant response rating (0 to 100 scale)” value [6, 29] was 80. The “Ragweed plant response rating (0-100)” value [7, 28] was 50, the “Ragweed plant response rating (0 to 100 scale)” value [7, 29] was 20 and the “Kochia plant response rating (0-100)” value (kochia (Bassia scoparia) [8]; [28]) was 80. The “Kochia plant response rating (0 to 100 scale)” value (kochia (Bassia scoparia) [8]; [29]) was 30, the “Horseweed plant response rating (0-100)” value [9, 28] was 20 and the “Horseweed plant response rating (0 to 100 scale)” value [9, 29] was 0. The “Soybean plant response rating (0-100)” value (soybean (Glycine max) [10]; [28]) was 70, the “Soybean plant response rating (0 to 100 scale)” value (soybean (Glycine max) [10]; [29]) was 50 and the “Wheat plant response rating (0-100)” value [11, 28] was 90. For the same molecule, the “Wheat plant response rating (0 to 100 scale)” value [11, 29] was 80, the “Barnyardgrass plant response rating (0-100)” value [12, 28] was 100 and the “Barnyardgrass plant response rating (0 to 100 scale)” value [12, 29] was 60. The “Ryegrass, Italian plant response rating (0-100)” value [13, 28] was 70, the “Ryegrass, Italian plant response rating (0 to 100 scale)” value [13, 29] was 20 and the “Plant response rating, Rice (0 to 100 scale, 0 is no effect and 100 is complete control)” value (rice (Oryza sativa)) was 0. For the same molecule, the “Plant response rating, Sedge, Umbrella (0 to 100 scale, 0 is no effect and 100 is complete control)” value [14] was 0, the “Plant response rating, Ducksalad (0 to 100 scale, 0 is no effect and 100 is complete control)” value [15] was 0 and the “Plant response rating, Barnyardgrass (0 to 100 scale, 0 is no effect and 100 is complete control)” value [16] was 0. The “Corn plant response rating” value (corn (Zea mays) [17]; 16 g ai/ha, 0 to 100 scale) was 0, the “Corn plant response rating (0-100)” value (corn (Zea mays) [17]; [30]) was 90 and the “Pigweed, Palmer plant response rating” value ([18]; 16 g ai/ha, 0 to 100 scale) was 20. For the same molecule, the “Pigweed, Palmer plant response rating (0-100)” value [18, 30] was 50, the “Blackgrass plant response rating” value ([19]; 16 g ai/ha, 0 to 100 scale) was 50 and the “Blackgrass plant response rating (0-100)” value [19, 30] was 90. The “Oat, Wild plant response rating” value ([20]; 16 g ai/ha, 0 to 100 scale) was 90, the “Oat, Wild plant response rating (0-100)” value [20, 30] was 90 and the “Foxtail, Green plant response rating” value ([21]; 16 g ai/ha, 0 to 100 scale) was 10. The “Foxtail, Green plant response rating (0-100)” value [21, 30] was 90, the “Ragweed plant response rating” value ([22]; 16 g ai/ha, 0 to 100 scale) was 0 and the “Ragweed plant response rating (0-100)” value [22, 30] was 20. The “Kochia plant response rating” value (kochia (Bassia scoparia) [23]; 16 g ai/ha, 0 to 100 scale) was 0, the “Kochia plant response rating (0-100)” value (kochia (Bassia scoparia) [23]; [30]) was 90 and the “Soybean plant response rating” value (soybean (Glycine max) [24]; 16 g ai/ha, 0 to 100 scale) was 10. For the same molecule, the “Soybean plant response rating (0-100)” value (soybean (Glycine max) [24]; [30]) was 0, the “Wheat plant response rating” value ([25]; 16 g ai/ha, 0 to 100 scale) was 30 and the “Wheat plant response rating (0-100)” value [25, 30] was 60. The “Barnyardgrass plant response rating” value ([26]; 16 g ai/ha, 0 to 100 scale) was 0, the “Barnyardgrass plant response rating (0-100)” value [26, 30] was 50 and the “Ryegrass, Italian plant response rating” value ([27]; 16 g ai/ha, 0 to 100 scale) was 0. The “Ryegrass, Italian plant response rating (0-100)” value [27, 30] was 90.
